In ChEMBL document CHEMBL5727310, “Substituted morpholine derivatives having activity against pain” (2019) one finds Ki data, which are given here for 1 compound.

In the test the target is Sigma non-opioid intracellular receptor 1 (Homo sapiens, UniProt Q99720). Nature of the test: Receptor Radioligand Assay: To investigate binding properties of test compounds to human σ1 receptor, transfected HEK-293 membranes and [3H](+)-pentazocine (Perkin Elmer, NET-1056), as the radioligand, were used. The assay was carried out with 7 μg of membrane suspension, 5 nM of [3H](+)-pentazocine in either absence or presence of either buffer or 10 μM Haloperidol for total and non-specific binding, respectively. Binding buffer contained Tris-HCl 50 mM at pH 8. Plates were incubated at 37° C. for 120 minutes. After the incubation period, the reaction mix was then transferred to MultiScreen HTS, FC plates (Millipore), filtered and plates were washed 3 times with ice-cold 10 mM Tris-HCL (pH7.4). Filters were dried and counted at approximately 40% efficiency in a MicroBeta scintillation counter (Perkin-Elmer) using EcoScint liquid scintillation cocktail.

SMILES strings stand for the structures. Some results are limits rather than exact numbers.

Chain of Sigma non-opioid intracellular receptor 1 (Q99720 whole entry): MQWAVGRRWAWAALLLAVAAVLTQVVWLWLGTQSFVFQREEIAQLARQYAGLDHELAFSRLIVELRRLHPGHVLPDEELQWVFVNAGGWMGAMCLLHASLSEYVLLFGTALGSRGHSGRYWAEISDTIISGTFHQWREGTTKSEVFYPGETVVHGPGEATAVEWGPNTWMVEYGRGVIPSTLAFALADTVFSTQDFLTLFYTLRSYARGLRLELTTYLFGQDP

Turning to `CCN1CC(C2CCN(CCC(C)C)CC2)OC2(CC2)C1` (stereo unspecified), the Ki (in general, a measure of affinity in units of concentration, obtained from inhibition or displacement) is below 500 nM.
